Data from patent publication US11065253B2, “Arylquinazolines” (Merck Patent GmbH, priority 2013, dated 2021).

What follows are compounds tested on phospho-serine 2056 DNA-PK in HCT116 cells (assay: DNA-PK phosphorylation at serine 2056 (cellular), ELISA in bleomycin-treated HCT116 cells). Conditions: Homo sapiens, HCT-116, 6 h, cellular; HCT116 cells, 10 μM bleomycin, six hours; read-out: IC50 pDNA-PK.
Format: cell-based
Method in brief: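 HCT116 cells grown overnight were co-treated with 10 μM bleomycin and test compound for 6 h at 37 °C. Phospho-DNA-PK was quantified by chemiluminescent ELISA and normalised to total DNA-PKcs signal, with DMSO control as blank.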
`COc1cnc(C(O)c2ccc(F)c(-c3ncnc4cc(N5CCOCC5)ccc34)c2)c(Cl)c1` (stereo not drawn) [Example 31, (3-Chloro-5-methoxy-pyridin-2-yl)-[4-fluoro-3-(7-morpholin-4-yl-quinazolin-4-yl)phenyl]-methanol] was tested, and the IC50 was under 0.5 µM. `Cc1ccc(C(O)c2ccc(F)c(-c3ncnc4cc(N5CCOCC5)ccc34)c2)nn1` (stereo not drawn) [Example 70, [4-Fluoro-3-(7-morpholin-4-yl-quinazolin-4-yl)phenyl]-(6-methylpyridazin-3-yl)methanol] showed an IC50 of 0.5 to 5 µM. Work on `OC(c1ccc(F)c(-c2ncnc3cc(N4CCOCC4)ccc23)c1)c1cncc(F)c1Cl` (stereo not drawn) [Example 2, (4-Chloro-5-fluoropyridin-3-yl)-[4-fluoro-3-(7-morpholin-4-ylquinazolin-4-yl)phenyl]methanol] yielded an IC50 of under 0.5 µM. Compound `COc1cnc(C(O)c2ccc(F)c(-c3ncnc4cc(N5CCOCC5)ccc34)c2)nc1` (stereo not drawn) [Example 66, [4-Fluoro-3-(7-morpholin-4-yl-quinazolin-4-yl)phenyl]-(5-methoxypyrimidin-2-yl)methanol] has an IC50 of 10 to 30 µM.

Same assay, conditions: Homo sapiens, HCT-116, cellular DNA-PK phosphorylation at serine 2056, HCT116 cells; read-out: IC50 pDNA-PK
In the case of `OC(c1cn2ccsc2n1)c1cc(-c2ncnc3cc(N4CCOCC4)ccc23)c(F)cc1F` (stereo not drawn) [Example 474, [2,4-Difluoro-5-(7-morpholin-4-yl-quinazolin-4-yl)-phenyl]imidazo-[2,1-b]thiazol-6-yl-methanol], the IC50 is reported as 10 to 30 µM. Work on `OC(c1cc(-c2ncnc3cc(N4CCOCC4)ccc23)c(F)cc1Cl)c1ncnc2ccoc12` (stereo not drawn) [Example 440, [2-Chloro-4-fluoro-5-(7-morpholin-4-yl-quinazolin-4-yl)-phenyl]furo[3,2-d}-pyrimidin-4-yl-methanol] yielded an IC50 of under 0.5 µM. Compound `OC(c1ccc(F)c(-c2ncnc3cc(N4CCOCC4)ccc23)c1)c1ncccc1OC(F)(F)F` (stereo not drawn) [Example 475, [4-Fluoro-3-(7-morpholin-4-yl-quinazolin-4-yl)-phenyl]-(3-trifluoro-methoxypyridin-2-yl)-methanol] has an IC50 of under 0.5 µM.

Same assay, conditions: Homo sapiens, HCT-116, phospho-serine 2056 DNA-PK, bleomycin-treated HCT116 cells; class symbols A-D; read-out: IC50 pDNA-PK
`OC(c1cccc(-c2ncnc3cc(N4CCOCC4)sc23)c1)c1nccs1` (stereo not drawn) [Example 182, [3-(6-Morpholin-4-ylthieno[3,2-d}-pyrimidin-4-yl)-phenyl]thiazol-2-yl-methanol] was tested, and the IC50 was 5 to 10 µM. Compound `C#CC(O)(c1ccc(OC)nn1)c1cc(-c2ncnc3cc(N4CCOCC4)ccc23)c(F)cc1Cl` (stereo not drawn) [Example 122, 1-[2-Chloro-4-fluoro-5-(7-morpholin-4-yl-quinazolin-4-yl)-phenyl]-1-(6-methoxy-pyridazin-3-yl)-prop-2-yn-1-ol] has an IC50 of 0.5 to 5 µM. In the case of `OCCOc1ccc(C(O)c2cc(-c3ncnc4cc(N5CCOCC5)ccc34)c(F)cc2Cl)nn1` (stereo not drawn) [Example 116, 2-(6-{[2-Chloro-4-fluoro-5-(7-morpholin-4-yl-quinazolin-4-yl)-phenyl]hydroxy-methyl}pyridazin-3-yl-oxy)ethanol], the IC50 is reported as 0.5 to 5 µM. With `OCc1csc(C(O)c2cc(-c3ncnc4cc(N5CCOCC5)ccc34)c(F)cc2Cl)n1` (stereo not drawn) [Example 142, [2-Chloro-4-fluoro-5-(7-morpholin-4-yl-quinazolin-4-yl)-phenyl]-(4-hydroxymethyl-thiazol-2-yl)-methanol] the IC50 was 0.5 to 5 µM. Compound `COc1ccc(C(O)c2cc(-c3ncnc4cc(N5CCOCC5)ccc34)c(F)cc2Cl)nn1` (stereo not drawn) [Example 137, [2-Chloro-4-fluoro-5-(7-morpholin-4-ylquinazolin-4-yl)-phenyl]-(6-methoxy-pyridazin-3-yl)-methanol] has an IC50 of 0.5 to 5 µM. `COc1nnc(C(O)c2cc(-c3ncnc4cc(N5CCOCC5)ccc34)c(F)cc2Cl)cc1C` (stereo not drawn) [Example 110, [2-Chloro-4-fluoro-5-(7-morpholin-4-yl-quinazolin-4-yl)-phenyl]-(6-methoxy-5-methylpyridazin-3-yl)methanol] showed an IC50 of 0.5 to 5 µM. With `COc1cc(C)c(C(O)c2cc(-c3ncnc4cc(N5CCOCC5)ccc34)c(F)cc2Cl)nn1` (stereo not drawn) [Example 109, [2-Chloro-4-fluoro-5-(7-morpholin-4-yl-quinazolin-4-yl)-phenyl]-(6-methoxy-4-methylpyridazin-3-yl)methanol] the IC50 was 5 to 10 µM. `OC(c1ccc2ncnn2c1)c1cc(-c2ncnc3cc(N4CCOCC4)ccc23)c(F)cc1F` (stereo not drawn) [Example 222, [2,4-Difluoro-5-(7-morpholin-4-yl-quinazolin-4-yl)-phenyl]-[1,2,4]-triazolo[1,5-a]pyridin-6-ylmethanol] showed an IC50 of 0.5 to 5 µM.

Same assay, conditions: Homo sapiens, HCT-116, phospho-serine 2056 DNA-PK, bleomycin-treated HCT116 cells; read-out: IC50 pDNA-PK
`OC(c1cc(-c2ncnc3cc(N4CCOCC4)ccc23)c(F)cc1F)c1nncc2ccoc12` (stereo not drawn) [Example 336, [2,4-Difluoro-5-(7-morpholin-4-yl-quinazolin-4-yl)-phenyl]furo[2,3-d}-pyridazin-7-yl-methanol] was tested, and the IC50 was under 0.5 µM. Work on `Cc1cnc(C(C(N)=O)c2ccc(F)c(-c3ncnc4cc(N5CCOCC5)ccc34)c2)c(C)n1` (stereo not drawn) [Example 318, 2-(3,5-Dimethyl-pyrazin-2-yl)-2-[4-fluoro-3-(7-morpholin-4-yl-quinazolin-4-yl)-phenyl]acetamide] yielded an IC50 of 10 to 30 µM. `Cc1nccnc1C(O)c1ccc(F)c(-c2ncnc3cc(N4CCOCC4)cnc23)c1` (stereo not drawn) [Example 237, [4-Fluoro-3-(7-morpholin-4-yl-pyrido[3,2-d}-pyrimidin-4-yl)-phenyl]-(3-methyl-pyrazin-2-yl)-methanol] showed an IC50 of under 0.5 µM. Compound `COc1nnccc1C(C(N)=O)c1cc(-c2ncnc3cc(N4CCOCC4)ccc23)c(F)cc1Cl` (stereo not drawn) [Example 307, 2-[2-Chloro-4-fluoro-5-(7-morpholin-4-yl-quinazolin-4-yl)-phenyl]-2-(3-methoxypyridazin-4-yl)acetamide] has an IC50 of 5 to 10 µM.

Same assay, conditions: cellular DNA-PK phosphorylation at serine 2056, HCT116 cells; read-out: IC50 pDNA-PK
For `COc1cncnc1C(O)c1cc(-c2ncnc3cc(N4CCOCC4)ccc23)ccc1Cl` (stereo not drawn) [Example 409, [2-Chloro-5-(7-morpholin-4-yl-quinazolin-4-yl)-phenyl]-(5-methoxy-pyrimidin-4-yl)-methanol (Ena 1)], the IC50 was 0.5 to 5 µM. `OC(c1ccc(F)c(-c2ncnc3cc(N4CCOCC4)ccc23)c1)c1ncnc2ccoc12` (stereo not drawn) [Example 471, [4-Fluoro-3-(7-morpholin-4-yl-quinazolin-4-yl)-phenyl]furo[3,2-d}-pyrimidin-4-yl-methanol] showed an IC50 of under 0.5 µM. With `OC(c1cc(-c2ncnc3cc(N4CCOCC4)ccc23)ccc1Cl)c1ncnc2ccoc12` (stereo not drawn) [Example 415, [2-Chloro-5-(7-morpholin-4-yl-quinazolin-4-yl)-phenyl]furo[3,2-d}-pyrimidin-4-yl-methanol (Ena 1)] the IC50 was under 0.5 µM. In the case of `COc1nccnc1C(O)c1cc(-c2ncnc3cc(N4CCOCC4)ccc23)ccc1Cl` (stereo not drawn) [Example 422, [2-Chloro-5-(7-morpholin-4-yl-quinazolin-4-yl)-phenyl]-(3-methoxy-pyrazin-2-yl)-methanol], the IC50 is reported as 0.5 to 5 µM. `Cn1c(C(O)c2cc(-c3ncnc4cc(N5CCOCC5)ccc34)c(F)cc2F)cccc1=O` (stereo not drawn) [Example 381, 6-{[2,4-Difluoro-5-(7-morpholin-4-yl-quinazolin-4-yl)-phenyl]hydroxy-methyl}-1-methyl-1H-pyridin-2-one (Ena 1)] gave an IC50 of 0.5 to 5 µM.

Same assay, conditions: phospho-serine 2056 DNA-PK, bleomycin-treated HCT116 cells; class symbols A-D; read-out: IC50 pDNA-PK
Compound `CC(C#N)Oc1ccc(C(O)c2cc(-c3ncnc4cc(N5CCOCC5)ccc34)c(F)cc2Cl)nn1` (stereo not drawn) [Example 101, 2-(6-{[2-Chloro-4-fluoro-5-(7-morpholin-4-yl-quinazolin-4-yl)-phenyl]hydroxy-methyl}pyridazin-3-yloxy)propionitrile] has an IC50 of under 0.5 µM. In the case of `OC(c1cc(F)c(F)c(-c2ncnc3cc(N4CCOCC4)ccc23)c1)c1nccs1` (stereo not drawn) [Example 178, [3,4-Difluoro-5-(7-morpholin-4-yl-quinazolin-4-yl)-phenyl]thiazol-2-yl-methanol], the IC50 is reported as 0.5 to 5 µM. Compound `Cc1nc([C@H](O)c2cnc(F)c(-c3ncnc4cc(N5CCOCC5)ncc34)c2)sc1C` [Example 204, (R)-(4,5-Dimethyl-thiazol-2-yl)-[6-fluoro-5-(7-morpholin-4-yl-pyrido[4,3-d}-pyrimidin-4-yl)-pyridin-3-yl]-methanol] has an IC50 of 10 to 30 µM.

These compounds were tested against Kv11.1 (hERG) channel (Homo sapiens (Human), UniProt Q12809) (assay: Kv11.1 ion channel binding assay (Predictor hERG fluorescence polarisation)). Conditions: class symbol marked with asterisk (*).
Chain of Kv11.1 (hERG) channel (Q12809 whole entry): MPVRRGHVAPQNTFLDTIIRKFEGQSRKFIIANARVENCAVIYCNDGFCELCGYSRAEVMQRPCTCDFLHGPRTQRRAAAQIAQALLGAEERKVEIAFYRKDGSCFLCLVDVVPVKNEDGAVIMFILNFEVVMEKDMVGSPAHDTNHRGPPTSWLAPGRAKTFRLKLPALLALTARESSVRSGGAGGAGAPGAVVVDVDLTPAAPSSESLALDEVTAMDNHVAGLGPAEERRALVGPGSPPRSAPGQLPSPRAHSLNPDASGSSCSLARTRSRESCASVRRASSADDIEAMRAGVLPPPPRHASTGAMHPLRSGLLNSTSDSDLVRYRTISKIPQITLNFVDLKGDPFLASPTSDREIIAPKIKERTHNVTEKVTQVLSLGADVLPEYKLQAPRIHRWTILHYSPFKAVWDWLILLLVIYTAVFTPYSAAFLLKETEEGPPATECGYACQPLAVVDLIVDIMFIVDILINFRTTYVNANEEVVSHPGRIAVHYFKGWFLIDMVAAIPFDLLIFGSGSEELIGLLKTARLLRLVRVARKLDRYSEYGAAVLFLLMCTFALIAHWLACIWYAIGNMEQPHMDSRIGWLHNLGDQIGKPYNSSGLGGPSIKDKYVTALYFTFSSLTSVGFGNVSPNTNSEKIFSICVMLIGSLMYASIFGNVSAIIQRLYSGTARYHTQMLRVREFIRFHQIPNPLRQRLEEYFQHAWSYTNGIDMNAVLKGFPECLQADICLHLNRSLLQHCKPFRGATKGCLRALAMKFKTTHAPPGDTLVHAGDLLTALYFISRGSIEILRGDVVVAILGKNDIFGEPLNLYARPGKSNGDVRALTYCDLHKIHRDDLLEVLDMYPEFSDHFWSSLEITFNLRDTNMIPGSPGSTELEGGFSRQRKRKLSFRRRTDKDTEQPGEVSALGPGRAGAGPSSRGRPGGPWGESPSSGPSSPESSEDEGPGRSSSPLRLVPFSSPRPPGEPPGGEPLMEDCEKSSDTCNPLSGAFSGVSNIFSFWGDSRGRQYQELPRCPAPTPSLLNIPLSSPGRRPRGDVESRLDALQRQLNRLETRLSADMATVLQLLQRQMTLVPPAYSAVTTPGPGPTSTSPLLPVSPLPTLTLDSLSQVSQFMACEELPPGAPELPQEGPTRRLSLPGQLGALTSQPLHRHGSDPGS
Experimental: D) Kv11.1 Ion Channel Binding Assay
Kv11.1 (hERG=human ether a go-go related […]) is a cardiac K^+ channel which should if possible not interact with the test substances. This interaction is determined quantitatively with the aid of the Predictor™ hERG Fluorescence Polarizations (FP) Assays from Life Technologies. In the case of this assay principle, cardiomyocyte cell membranes having a certain proportion of Kv11.1 channels are isolated. A dye-labelled Kv11.1 binding partner gives a high fluorescence polarisation signal by interaction with the Kv11.1. In the case of displacement of the dye, a reduction in the fluorescence polarisation signal occurs.
The assay is carried out automatically as follows: 15 nl of the test substances (highest concentration: 10 mM, 10 concentrations: dilution factors 1:3.16, DMSO) are transferred into an empty microtitre plates having 384 wells by means of an acoustic pipetter. 3 μl of the isolated membranes are subsequently added. Membranes and test substances are incubated at 22° C. for 15 min (+/−5 min). In the next step, the dye-labelled binding partner is added, followed by incubation at 22° C. After incubation for two hours, the measurement of the fluorescence polarisation is carried out on an Envision multimode Reader. Measured raw data are standardised with the aid of Genedata Assay Analyzer. The IC50 and % effect values are calculated in Genedata Condoseo.
For `NC(=O)C(c1ccc(F)c(-c2ncnc3cc(N4CCOCC4)ccc23)c1)c1nncc2ccsc12` (stereo not drawn) [Example 284, 2-[4-Fluoro-3-(7-morpholin-4-yl-quinazolin-4-yl)-phenyl]-2-thieno-[2,3-d}pyridazin-7-yl-acetamide], the “Ki [Kv1.11 hERG]” value was “A*”. In the case of `COc1nccnc1C(O)c1ccc(F)c(-c2ncnc3cc(N4CCOCC4)cc(F)c23)c1` (single isomer, unassigned) [Example 253, [4-Fluoro-3-(5-fluoro-7-morpholin-4-yl-quinazolin-4-yl)-phenyl]-(3-methoxy-pyrazin-2-yl)-methanol], the “Ki [Kv1.11 hERG]” value is reported as “A*”. For `COC(c1ccc(F)c(-c2ncnc3cc(N4CCOCC4)ccc23)c1)c1nccnc1C` (stereo not drawn) [Example 352], the “Ki [Kv1.11 hERG]” value was “A*”.
